Data set [1] relates to Human alphaherpesvirus 2. In words: Antiviral activity against HSV-2 333vhsB infected in African green monkey Vero cells assessed as inhibition of viral replication by measuring reduction in virus-induced cytopathic effect at 50 uM incubated for 20 hrs by colorimetric analysis. Type of data set: functional, organism-based. In general terms: Cytopathic effects are the visible damage that an infection or toxin causes in cultured cells.

Data set [2] deals with Human alphaherpesvirus 2. In words: Antiviral activity against HSV-2 infected in African green monkey Vero cells assessed as inhibition of viral replication by measuring log suppression of virus-induced cytopathic effect at 5 uM incubated for 1 hr followed by washing with PBS and subsequent treatment with compound for 24 hrs by plaque assay. Format: functional. The settings on record: time 25 hrs.

Data set [3] deals with Human alphaherpesvirus 2. In words: Antiviral activity against HSV-2 infected in African green monkey Vero cells assessed as inhibition of viral replication by measuring log suppression of virus-induced cytopathic effect at 1 uM incubated for 1 hr followed by washing with PBS and subsequent treatment with compound for 24 hrs by plaque assay. Type of data set: functional. The settings on record: time 25 hrs.

Data set [4] has as its system Human alphaherpesvirus 2. In words: Antiviral activity against HSV-2 infected in African green monkey Vero cells assessed as inhibition of viral replication incubated for 1 hr followed by washing with PBS and subsequent treatment with compound for 24 hrs by plaque reduction assay. Format: functional, organism-based. The note with it: Human alphaherpesvirus 2, Vero. For orientation: Plaques are areas of infected cells; plaque reduction assays count them against a control.

A further data set deals with Vero. In words: Cytotoxicity against African green monkey Vero cells assessed as reduction in cell viability incubated for 24 hrs by MTS assay. The note with it: chlorocebus sabaeus. Background: Tetrazolium dyes change colour on reduction, which living cells bring about.
Data set [5] can be described thus: Cytotoxicity against human HepDES19 cells assessed as reduction in cell viability incubated for 72 hrs by MTS assay. Type of data set: toxicity, cell-based. The note with it: hepdes19, 72 h.
Data set [6] is described as follows: Half life in mouse liver microsomes at 2 uM in presence of NADPH by LC/MS/MS analysis. Type of data set: ADME, Microsome.
A short description of data set [7]: Half life in human liver microsomes at 2 uM in presence of NADPH by LC/MS/MS analysis. Type of data set: ADME, Microsome.
A short description of data set [8]: Apparent permeability of the compound across apical to basolateral side in human Caco-2 cells at 10 uM incubated for 2 hrs. Type of data set: ADME, cell-based. The settings on record: caco-2, 2 h.
For data set [9], the system named is Human alphaherpesvirus 1. In words: Antiviral activity against HSV-1 infected in African green monkey Vero cells assessed as inhibition of viral replication by measuring log suppression of virus-induced cytopathic effect at 5 uM incubated for 1 hr followed by washing with PBS and subsequent treatment with compound for 24 hrs by plaque assay. The note with it: time 25 hrs. Type of data set: functional.

Data set [10] relates to Human alphaherpesvirus 1. In words: Antiviral activity against HSV-1 infected in African green monkey Vero cells assessed as inhibition of viral replication by measuring log suppression of virus-induced cytopathic effect at 1 uM incubated for 1 hr followed by washing with PBS and subsequent treatment with compound for 24 hrs by plaque assay. The settings on record: time 25 hrs. Format: functional.

The test system of data set [11] is Human alphaherpesvirus 2. In words: Antiviral activity against wild-type HSV-2 186 infected in African green monkey Vero cells assessed as inhibition of viral replication incubated for 1 hr followed by washing with PBS and subsequent treatment with compound for 24 hrs by plaque reduction assay. Type of data set: functional, organism-based. The settings on record: Human alphaherpesvirus 2, 186, Vero.

Data set [12] concerns Human alphaherpesvirus 2. In words: Antiviral activity against thymidine kinase-deficient ACV-resistant HSV-2 186 TKdeltakpn infected in African green monkey Vero cells assessed as inhibition of viral replication incubated for 1 hr followed by washing with PBS and subsequent treatment with compound for 24 hrs by plaque reduction assay. Format: functional, organism-based. The settings on record: Human alphaherpesvirus 2, 186 TKdeltakpn.

A short description of data set [13]: Half-life in BALB/c mouse at 3 mg/kg, po and 1 mg/kg, iv by LC/MS/MS analysis. Format: ADME, organism-based. The note with it: in vivo.
Data set [14] is described as follows: Oral bioavailability in BALB/c mouse at 3 mg/kg by LC/MS/MS analysis. The settings on record: in vivo. Type of data set: ADME, organism-based.
Data set [15] deals with Human alphaherpesvirus 1. In words: Antiviral activity against HSV-1 infected in African green monkey Vero cells assessed as inhibition of viral replication incubated for 1 hr followed by washing with PBS and subsequent treatment with compound for 24 hrs by plaque reduction assay. Format: functional, organism-based. The note with it: Human alphaherpesvirus 1, Vero.

Results on eight compounds are retold here after ChEMBL document CHEMBL5137030 (Eur J Med Chem, 2022).

Broadly, the EC50 is the concentration needed to bring the measured effect to its halfway point. In general, CC50 refers to the concentration at which the toxic effect on the cells reaches its halfway point. One may read the bioavailability as the share of a dose that reaches the circulation, judged against a reference dose that is usually intravenous.

Structures are written as SMILES. The source made the active and inactive calls. The calls are words filed in the database; no cut-off is given here.

`COc1cccc(Cc2cc(C)cc(=O)n2O)c1`: the result in the data set with Human alphaherpesvirus 2 [1] was Active. For the same compound, the “log(activity)” value in the data set on Human alphaherpesvirus 2 [2] is reported as 4.57; in the data set with Human alphaherpesvirus 2 [3], 2.15. Also, in the data set with Human alphaherpesvirus 2 [4], the EC50 was determined as 270 nM. Besides, the CC50 in the data set with Vero was > 100000 nM; in [5], 60000 nM. Moreover, the t1/2 in [6] is recorded as 15 min; in data set [7], 19 min. The Papp in data set [8] was 2.43 10^-7 cm/s.

On to `Cc1cc(Cc2cccc3ccccc23)n(O)c(=O)c1`, for which, in the data set with Human alphaherpesvirus 2 [1], the result was Active. Besides, the “log(activity)” value in the data set with Human alphaherpesvirus 2 [2] was determined as 4.33; in the data set on Human alphaherpesvirus 2 [3] it was 3.12; in the data set with Human alphaherpesvirus 1 [9], 4.81; in the data set on Human alphaherpesvirus 1 [10], 2.99. Also, the values for the EC50 in the data set with Human alphaherpesvirus 2 [4], in the data set with Human alphaherpesvirus 2 [11] and in the data set on Human alphaherpesvirus 2 [12] were 220 nM, < 300 nM and < 300 nM, respectively. The CC50 is 93100 nM with Vero and 25000 nM in [5]. The t1/2 was < 5 min in data set [6], < 5 min in data set [7] and < 60 min in data set [13]. Further, in data set [8], the Papp is listed as 6.46 10^-6 cm/s. This compound displayed a bioavailability in data set [14] of 10%.

As to `Cc1cc(Cc2ccc(-c3ccccc3)cc2)n(O)c(=O)c1`, the result in the data set on Human alphaherpesvirus 2 [1] was Active. Besides, the “log(activity)” value with Human alphaherpesvirus 2 [2] came to 4.6; with Human alphaherpesvirus 2 [3] it was 3.09; in the data set with Human alphaherpesvirus 1 [9] it was 4.74; with Human alphaherpesvirus 1 [10] it was 4.37. Besides, the EC50 was 210 nM in the data set on Human alphaherpesvirus 1 [15], 140 nM in the data set with Human alphaherpesvirus 2 [4], < 300 nM with Human alphaherpesvirus 2 [11] and < 300 nM with Human alphaherpesvirus 2 [12]. The CC50 in data set [5] is 12000 nM. Further, the figures for the t1/2 in data set [6], in data set [7] and in data set [13] were < 5 min, < 5 min and < 60 min, respectively. The Papp in data set [8] was 1.35 10^-6 cm/s. This compound also had a bioavailability in data set [14] of 10%.

`Cc1cc(Cc2ccc(Cl)cc2)n(O)c(=O)c1`: the result in the data set with Human alphaherpesvirus 2 [1] was Active. For the same compound, the “log(activity)” value in the data set on Human alphaherpesvirus 2 [2] is on record as 4.4; in the data set with Human alphaherpesvirus 2 [3] it was 3.16; in the data set with Human alphaherpesvirus 1 [9] it was 4.27; in the data set with Human alphaherpesvirus 1 [10] it was 2.44. Moreover, the figures for the EC50 in the data set on Human alphaherpesvirus 1 [15] and with Human alphaherpesvirus 2 [4] were 160 nM and 310 nM, respectively. The CC50 in data set [5] came to 26000 nM. The t1/2 in data set [13] is < 60 min. In data set [14], this compound gave a bioavailability of 10%.

Consider `Cc1cc(C2CCCCC2)n(O)c(=O)c1` [CICLOPIROX], for which the “log(activity)” value in the data set on Human alphaherpesvirus 2 [2] came to 5.5; in the data set with Human alphaherpesvirus 2 [3] it was 2.6; in the data set with Human alphaherpesvirus 1 [9] it was 4.62; in the data set with Human alphaherpesvirus 1 [10], 1.66. In addition, the EC50 with Human alphaherpesvirus 1 [15] is 270 nM; with Human alphaherpesvirus 2 [4], 500 nM; in the data set with Human alphaherpesvirus 2 [11], < 300 nM; with Human alphaherpesvirus 2 [12] it was < 300 nM. The figures for the CC50 (with Vero; in [5]) were > 100000 nM and 13000 nM, respectively.

As for `O=c1cc(-c2ccccc2)cc(C2CCCCC2)n1O`, the result in the data set with Human alphaherpesvirus 2 [1] was Active. Besides, the “log(activity)” value is given as 4.08 in the data set with Human alphaherpesvirus 2 [2], 3.73 in the data set with Human alphaherpesvirus 2 [3], 5.37 in the data set with Human alphaherpesvirus 1 [9] and 3.43 in the data set with Human alphaherpesvirus 1 [10]. In addition, the EC50 in the data set on Human alphaherpesvirus 2 [4] was 290 nM; with Human alphaherpesvirus 2 [11], < 300 nM; in the data set on Human alphaherpesvirus 2 [12] it was < 300 nM. The CC50 in data set [5] amounted to 20000 nM. Also, the t1/2 in [6] is < 5 min; in [7] it was < 5 min; in [13], < 60 min. The Papp in [8] is 4.33 10^-6 cm/s. Moreover, the bioavailability in [14] came out at 10%.

Regarding `Cc1cc(CC2CCCCC2)n(O)c(=O)c1`, the outcome in the data set on Human alphaherpesvirus 2 [1] was Active. Besides, the “log(activity)” value with Human alphaherpesvirus 2 [2] was found to be 4.9; with Human alphaherpesvirus 2 [3] it was 4.19; in the data set on Human alphaherpesvirus 1 [9], 4.43; in the data set on Human alphaherpesvirus 1 [10] it was 3.98. Besides, the EC50 with Human alphaherpesvirus 2 [4] stood at 260 nM. In addition, the CC50 in data set [5] is 28000 nM. For the same compound, the t1/2 in data set [6] is < 5 min; in [7] it was < 5 min; in data set [13], < 60 min. The Papp in [8] is on record as 3.14 10^-5cm/s. Besides, the bioavailability in data set [14] came out at 10%.

Consider `Cc1cc(Cc2ccccc2)n(O)c(=O)c1`, for which, in the data set with Human alphaherpesvirus 2 [1], the outcome was Active. The “log(activity)” value with Human alphaherpesvirus 2 [2] was 5.79; in the data set with Human alphaherpesvirus 2 [3] it was 1.59; with Human alphaherpesvirus 1 [9], 4.71; in the data set with Human alphaherpesvirus 1 [10], 1.07. The EC50 in the data set with Human alphaherpesvirus 2 [4] amounted to 230 nM. For the same compound, the results for the CC50 (in the data set on Vero; in data set [5]) were > 100000 nM and 42000 nM, respectively. Also, the t1/2 in data set [6] is recorded as < 5 min; in data set [7], 6 min. For the same compound, the Papp in data set [8] is 1.44 10^-5cm/s.
